This assay concerns human normal hair papilla cells HFDPC-C. Description: Cell growth test on hair papilla cells (neutral red method, living cell number vs purified water control). Format: cell-based. The following applies: for Hair papilla cell growth promoting action (in words): conclusion from Tables 1, 2 and 4; for Growth rate control = 100: 72 hours culture. How it is done: First, human normal hair papilla cells HFDPC-C (manufactured by Takara Bio Inc.) were obtained, and the hair papilla cells were then seeded at 0.2×10^4/dish in each well of a 96-well plate for cell culture (manufactured by Corning Inc.). Further, 200 μL of a basal medium (trade name: “Follicle Dermal Papilla Cell Basal Medium”, manufactured by Takara Bio Inc.) containing a growth factor accompanying the obtained hair papilla cells was supplied to each well, and the hair papilla cells were precultured in each well at 37° C. for 24 hours.
Next, the hair papilla cells were confirmed to be subconfluent, and the basal medium in each well was then replaced by 200 μL of another basal medium (trade name: “Follicle Dermal Papilla Cell Basal Medium”, manufactured by Takara Bio Inc.) free of the growth factor described above. In this way, hair papilla cells to be used for determining whether or not addition of the above-described samples promote cell growth were prepared.
To the hair papilla cells prepared as described above, amino acids, combinations of amino acids, peptides and collagen peptide mixtures which are the samples described above were added at final concentrations shown in Tables 1 and 2, and the hair papilla cells were cultured in each well at 37° C. for 72 hours. Here, to one of the wells containing the hair papilla cells prepared as described above, 20 μL, of purified water was added, and as with other hair papilla cells, culturing was performed at 37° C. for 72 hours to prepare a control test sample (control). Thereafter, for each of the hair papilla cells in the wells containing purified water or the samples, the number of living cells (living cell number) was counted by a neutral red method. Here, the “neutral red method” is a method in which neutral red is added at a final concentration of 150 μg/mL into a well where cells are cultured, the cells are cultured for 20 minutes, and washed with PBS (phosphate buffer physiological saline), 200 μL of a 50 mass % ethanol solution containing 1 mass % acetic acid is added into the well as an extraction liquid, the mixture is stirred, and the absorbance of the well containing the neutral red is measured at a wavelength of 540 nm to measure the number of living cells in the well.
The number of living cells of hair papilla cells in the well containing the sample with respect to the number of living cells of hair pallia cells in the well containing purified water (control test sample) was determined as a cell growth rate (%) to evaluate the hair papilla cell growth promoting action in the sample. Further, the cell growth rate (%) was subjected to statistical processing to evaluate significance of the hair papilla cell growth promoting action in the sample. […] Thereafter, the Student's t-test (t-test) was conducted to evaluate significance. […] In Tables 1 and 2, samples with “++” were determined to have a significance in the hair papilla cell growth promoting action. In samples with “+”, the cell growth rate (%) exceeded 100.

[1] abbreviates: final concentration 0.05 mM, Table 4 (control test).
Where [2] appears, read: final concentration 0.5 mM, Table 4 (control test).
The mark [3] stands for this setting: final concentration 5 mM, Table 4 (control test).
The mark [4] stands for this setting: final concentration 0.05 mM, Table 1.
Where [5] appears, read: final concentration 0.5 mM, Table 1.
[6] abbreviates: final concentration 5 mM, Table 1.

Turning to `C[C@H](N)C(=O)O` [Ala, alanine, reference compound], the “Hair papilla cell growth promoting action (in words)” value was “poor hair papilla cell growth promoting action”. For the same molecule, the “Growth rate control = 100” value (final concentration 0.05 mM) was 94 ± 1%. Also, the Assessment entry under setting [1] is on record as “−”. Moreover, the “Growth rate control = 100” value (final concentration 0.5 mM) was 100 ± 8%. Under setting [2], the Assessment entry was “−”. Moreover, the “Growth rate control = 100” value (final concentration 5 mM) was 95 ± 1%. Besides, the Assessment entry under setting [3] is “−”.

Turning to `N=C(N)NCCC[C@H](N)C(=O)O` [Arg, arginine, reference compound], the “Hair papilla cell growth promoting action (in words)” value is recorded as “poor hair papilla cell growth promoting action”. The “Growth rate control = 100” value (final concentration 0.05 mM) was found to be 93 ± 6%. Also, under setting [1], the Assessment result was “−”. The “Growth rate control = 100” value (final concentration 0.5 mM) was 98 ± 3%. Also, the Assessment result under setting [2] was “−”. Besides, the “Growth rate control = 100” value (final concentration 5 mM) came to 101 ± 2%. For the same molecule, the Assessment result under setting [3] was “−”.

`NCC(=O)O.O=C(O)[C@@H]1CCCN1` [GP, glycine-proline]: the “Hair papilla cell growth promoting action (in words)” value is “had a hair papilla cell growth promoting action”. In addition, the “Growth rate control = 100” value (final concentration 0.05 mM) is recorded as 105 ± 4%. Moreover, under setting [4], the Assessment entry is “+ (In samples with “+”, the cell growth rate (%) exceeded 100)”. Moreover, the “Growth rate control = 100” value (final concentration 0.5 mM) was found to be 109 ± 2%. Further, the Assessment result under setting [5] was “++”. Also, the “Growth rate control = 100” value (final concentration 5 mM) came out at 114 ± 2%. In addition, the Assessment result under setting [6] is reported as “++”.

As to `NC(=O)CC[C@H](N)C(=O)O` [Gln, glutamine, reference compound], the “Hair papilla cell growth promoting action (in words)” value is “poor hair papilla cell growth promoting action”. The “Growth rate control = 100” value (final concentration 0.05 mM) came out at 92 ± 2%. The Assessment result under setting [1] is “−”. Besides, for the setting “final concentration 0.5 mM”, the “Growth rate control = 100” value was 94 ± 5%. Besides, the Assessment result under setting [2] is reported as “−”. For the same molecule, where the note is “final concentration 5 mM”, the “Growth rate control = 100” value is on record as 100 ± 4%. Also, under setting [3], the Assessment entry is listed as “−”.

As to `O=C(O)[C@@H]1C[C@@H](O)CN1` [O, hydroxyproline], the “Hair papilla cell growth promoting action (in words)” value is “had a hair papilla cell growth promoting action”. Under “final concentration 0.05 mM”, the “Growth rate control = 100” value was found to be 114 ± 1%. Further, the Assessment entry under setting [4] is given as “++”. The “Growth rate control = 100” value (final concentration 0.5 mM) is 114 ± 3%. Also, the Assessment result under setting [5] is recorded as “++”. For the same molecule, the “Growth rate control = 100” value (final concentration 5 mM) is recorded as 110 ± 5%. Also, the Assessment entry under setting [6] is recorded as “++”.

Consider `NCC(=O)O.O=C(O)[C@@H]1CCCN1` [PG, proline-glycine], for which the “Hair papilla cell growth promoting action (in words)” value was “had a hair papilla cell growth promoting action”. Under “final concentration 0.05 mM”, the “Growth rate control = 100” value came out at 120 ± 5%. The Assessment result under setting [4] is “++”. For the same molecule, the “Growth rate control = 100” value (final concentration 0.5 mM) is 120 ± 1%. In addition, the Assessment result under setting [5] is given as “++”. For the same molecule, the “Growth rate control = 100” value (final concentration 5 mM) was found to be 120 ± 5%. The Assessment entry under setting [6] is “++”.

In the case of `O=C(O)[C@@H]1CCCN1` [Pro, proline, reference compound], the “Hair papilla cell growth promoting action (in words)” value is “poor hair papilla cell growth promoting action”. Moreover, where the note is “final concentration 0.05 mM”, the “Growth rate control = 100” value turned out to be 91 ± 4%. Under setting [1], the Assessment entry was “−”. In addition, the “Growth rate control = 100” value (final concentration 0.5 mM) stood at 93 ± 5%. Further, the Assessment result under setting [2] is “−”. Further, for the setting “final concentration 5 mM”, the “Growth rate control = 100” value came to 96 ± 1%. Moreover, the Assessment result under setting [3] is listed as “−”.

As for alanine-hydroxyproline-glycine [AOG], the “Hair papilla cell growth promoting action (in words)” value is reported as “had a hair papilla cell growth promoting action”. The “Growth rate control = 100” value (final concentration 0.05 mM) is recorded as 127 ± 5%. Under setting [4], the Assessment result is reported as “++”. Moreover, for the setting “final concentration 0.5 mM”, the “Growth rate control = 100” value is 126 ± 2%. Under setting [5], the Assessment result is listed as “++”. Further, the “Growth rate control = 100” value (final concentration 5 mM) is recorded as 119 ± 2%. Moreover, under setting [6], the Assessment result is “++”.
